# Source: patent US12239643B2, “Therapeutic agent for inflammatory diseases, autoimmune diseases, fibrotic diseases, and cancer diseases” (MEIJI SEIKA PHARMA CO., LTD., priority 2018, dated 2025)
# Tests used:
# IL-17A = assay: Cytokine suppression using whole human blood: IL-17A (phytohaemagglutinin stimulus); type: cell-based; details: read-out: IL-17A Inhibitory Activity, Human Whole Blood (Test Example 3)
# Description: (§1) The test compound dissolved in dimethyl sulfoxide was added to a 96-well plate, and RPMI-1640 medium and human peripheral blood containing sodium heparin were added, followed by culture at 37° C. under 5% CO2 for 1 hour. A medium containing only dimethyl sulfoxide instead of the test compound was added to the control well. […]
# (§2) After collecting the culture supernatant after culturing, the amount of each cytokine was measured by the sandwich ELISA method. […]
# (§3) The measurement results obtained by measuring the TNFα inhibitory activity and IL-5 inhibitory activity (50% inhibitory concentration) of the test compounds by the above method were evaluated in accordance with the following evaluated basis; A: less than 100 nM, B: 100 nM or more and less than 500 nM, and C: 500 nM or more. In addition, the measurement results obtained by measuring the IL-17A inhibitory activity and IL-4 inhibitory activity (50% inhibitory concentration) of the test compounds were evaluated in accordance with the following evaluated basis; A: less than 500 nM, B: 500 nM or more and less than 5000 nM, and C: 5000 nM or more.
# IL-5 = assay: Cytokine suppression using whole human blood: IL-5 (CytoStim and CD28 antibody stimulus); type: cell-based; details: read-out: IL-5 Inhibitory Activity, Human Whole Blood (Test Example 3)
# Description: as §1, §2, §3
# A549 (lung cancer) = assay: Antitumor activity: growth inhibition of A549; type: cell-based; details: Homo sapiens, 120 h; A549, culturing for 5 days; read-out: 50% growth inhibitory concentration
# Description: As antitumor activity, 50% growth inhibitory concentration of various cancer cells (CEM-C1 (blood cancer (leukemia)), SU-DHL-4 (blood cancer (lymphoma)), A549 (lung cancer), HCT-116 (colorectal cancer), and Daoy (brain tumor)) was calculated as follows. First, each of the above cancer cells was seeded on a 384-well plate and cultured overnight at 37° C. under 5% CO2. After that, the test compound was added at various concentrations on the next day, and each number of cells was measured after culturing for 5 days. The 50% growth inhibitory concentration was defined as the test compound concentration at which the number of cells measured is an intermediate value between the number of cells after culture for 5 days under the same conditions without the addition of the test compound and the number of cells at the time of seeding (before the start of culture). The measurement results obtained by measuring the 50% growth inhibitory concentration of the test compound by the above method were evaluated in accordance with the following evaluated basis; A: less than 10 μM, B: 10 μM or more and less than 50 μM, and C: 50 μM or more. As a result of using apremilast as the test compound, the evaluation was C in all cancer cells. On the other hand, as a result of using the compound obtained in Example 248 as the test compound, the evaluation was A in all cancer cells.
# [1] = system: histamine-induced vascular hyperpermeability, Crl:CD1 (ICR) mice; assay: Histamine-induced mouse vascular hyperpermeability model; type: in vivo; details: 10 mg/kg orally, histamine intradermally
# Description: Evaluation was carried out using male Crl:CD1 (ICR) mice (6 to 7 weeks of age). First, before conducting the test, the hair on the back of the mice was shaved with a small hair clipper under isoflurane anesthesia (an appropriate amount of about 3% with an inhalation isoflurane anesthesia machine). Next, the mice were orally administered with 10 mg/kg (10 mL/kg) of the test compound dissolved or suspended in 0.5% w/v methylcellulose (0.5% MC), and intravenously administered with 0.4% Evans blue saline (10 mL/kg) after 1 to 4 hours, and approximately 2 minutes later, 15 mM histamine saline was intradermally administered to the dorsal neck as a vascular hyperpermeability substance (20 μL/site). […] The absorption value (620/670 nm) of the supernatant after centrifugation was measured with a plate reader, and the average absorption value of the blank group was subtracted therefrom. Using the resultant as the absorption value of each tissue lysate, the vascular permeability suppression rate was calculated by the following formula. […]
# The measurement results obtained by measuring the vascular permeability suppression rate of the test compound by the above method were evaluated in accordance with the following evaluated basis; A: 90% or more, B: 80% or more and less than 90%, and C: less than 80%. […]
Compound,IC50 (IL-17A),IC50 (IL-5),IC50 (A549 (lung cancer)),vascular permeability suppression rate [1]
"CC(C)(O)C(F)(F)Oc1ccc(-c2nccs2)c2oc(N3CC4CC(C3)N4)nc12 [Example 248, 1-((2-(3,6-Diazabicyclo[3.1.1]heptan-3-yl)-7-(thiazol-2-yl)benzo[d]oxazol-4-yl)oxy)-1,1-difluoro-2-methylpropan-2-ol]",< 500 nM,< 500 nM,< 10 µM,A (A: 90% or more)
"CCOc1cc([C@@H](CS(C)(=O)=O)N2C(=O)c3cccc(NC(C)=O)c3C2=O)ccc1OC [apremilast, reference compound]",≥ 5000 nM,≥ 5000 nM,≥ 50 µM,C (C: less than 80%)
